In EP4782466A1, “FUSION PROTEIN FOR INACTIVATING CORONAVIRUS AND USE THEREOF” (priority 2023, dated 2025):

How the values were obtained:
[1] = system: coronavirus pseudoviruses such as 2019-nCoV; conditions: verified in Chinese Patent Application No. CN202180001804.1; cited from earlier work
[2] = system: SARS-CoV-2 prototype pseudovirus
[3] = system: SARS-CoV-2 Alpha pseudovirus
[4] = system: SARS-CoV-2 Beta pseudovirus
[5] = system: SARS-CoV-2 Gamma pseudovirus
[6] = system: SARS-CoV-2 Delta pseudovirus
[7] = system: SARS-CoV-2 Lambda pseudovirus
[8] = system: SARS-CoV-2 BA.1 pseudovirus
[9] = system: SARS-CoV-2 BA.2 pseudovirus
[10] = system: SARS-CoV-2 BA.2.2 pseudovirus
[11] = system: SARS-CoV-2 BA.2.9 pseudovirus
[12] = system: SARS-CoV-2 BA.2.12.1 pseudovirus
[13] = system: SARS-CoV-2 BA.2.75 pseudovirus
[14] = system: SARS-CoV-2 BA.3 pseudovirus
[15] = system: SARS-CoV-2 BA.4.6 pseudovirus
[16] = system: SARS-CoV-2 BA.5 pseudovirus
[17] = system: SARS-CoV-2 BF.7 pseudovirus
[18] = system: SARS-CoV-2 XBB pseudovirus
[19] = system: SARS-CoV-2 BQ.1 pseudovirus

For “SLDQINVTFLDLEYEMKKLEEAIKKLEESYIDLKEL-GSG-DPEG4-K(palmitic) [EK1-palmitic]”, the “inhibitory activity against coronavirus pseudoviruses” value [1] is given as “possess inhibitory activity”.

With `CC[C@H](C)[C@H](NC(=O)[C@H](C)NC(=O)[C@H](CCC(=O)O)NC(=O)[C@H](CCC(=O)O)NC(=O)[C@H](CC(C)C)NC(=O)[C@H](CCCCN)NC(=O)[C@H](CCCCN)NC(=O)[C@H](CCSC)NC(=O)[C@H](CCC(=O)O)NC(=O)[C@H](Cc1ccc(O)cc1)NC(=O)[C@H](CCC(=O)O)NC(=O)[C@H](CC(C)C)NC(=O)[C@H](CC(=O)O)NC(=O)[C@H](CC(C)C)NC(=O)[C@H](Cc1ccccc1)NC(=O)[C@@H](NC(=O)[C@@H](NC(=O)[C@H](CC(N)=O)NC(=O)[C@@H](NC(=O)[C@H](CCC(N)=O)NC(=O)[C@H](CC(=O)O)NC(=O)[C@H](CC(C)C)NC(=O)[C@@H](N)CO)[C@@H](C)CC)C(C)C)[C@@H](C)O)C(=O)N[C@@H](CCCCN)C(=O)N[C@@H](CCCCN)C(=O)N[C@@H](CC(C)C)C(=O)N[C@@H](CCC(=O)O)C(=O)N[C@@H](CCC(=O)O)C(=O)N[C@@H](CO)C(=O)N[C@@H](Cc1ccc(O)cc1)C(=O)N[C@H](C(=O)N[C@@H](CC(=O)O)C(=O)N[C@@H](CC(C)C)C(=O)N[C@@H](CCCCN)C(=O)N[C@@H](CCC(=O)O)C(=O)N[C@@H](CC(C)C)C(=O)O)[C@@H](C)CC` [EK1] the IC50 [2] was 186 nM, the IC50 [3] was 268 nM and the IC50 [4] was 257 nM. For the same molecule, the IC50 [5] was 277 nM, the IC50 [6] was 150 nM and the IC50 [7] was 995 nM. For the same molecule, the IC50 [8] was 70.5 nM, the IC50 [9] was 297 nM and the IC50 [10] was 162 nM. It also gave an IC50 [11] of 199 nM, an IC50 [12] of 342 nM and an IC50 [13] of 331 nM. The IC50 [14] was 136 nM, the IC50 [15] was 473 nM and the IC50 [16] was 568 nM. It also gave an IC50 [17] of 584 nM, an IC50 [18] of 233 nM and an IC50 [19] of 136 nM. It also gave an IC50 (SARS-CoV pseudovirus) of 841 nM, an IC50 (HCoV-NL63 pseudovirus) of 1070 nM and an IC50 (WIV1 pseudovirus) of 2450 nM. For the same molecule, the IC50 (Rs3367 pseudovirus) was 1340 nM.

In the case of “SLDQINVTFLDLEYEMKKLEEAIKKLEESYIDLKEL-GSGSG-DPEG4-C(cholesterol) [EK1-chol]”, the “inhibitory activity against coronavirus pseudoviruses” value [1] is given as “possess inhibitory activity”.
